Assay results taken from article PMC3922537 (Organic & biomolecular chemistry, 2013).

System: CYP76AH4
Experiment: in vitro hydroxylation assay of recombinant enzyme, GC-MS
Type: cell-based, Salvia rosmarinus
Conditions: C12-hydroxylation to ferruginol; enzyme preparation not described in main text

Km: 25 ± 6 µM
Compound: CC(C)c1ccc2c(c1)CC[C@H]1C(C)(C)CCC[C@]21C [compound 3, abietatriene]
